Experiments:
Test in all cases: pre-emergence herbicidal test
Type in all cases: in vivo
[1] = system: Abutilon theophrasti (ABUTH); settings: second assessment 21 days after treatment
Protocol: (§1) To evaluate their herbicidal activity, compounds according to the invention are tested using a representative range of plants: […] The pre-emergence tests involve spraying a liquid formulation of the compound onto the soil in which the seeds of the plant species mentioned above has recently been sown. The soil used in the tests is a prepared horticultural loam. […] In these tests untreated sown soil are used as controls.

[2] = system: Alopecurus myosuroides (ALOMY); settings: second assessment 21 days after treatment
Protocol: as §1

[3] = system: Ambrosia artemisiifolia (AMBEL); settings: second assessment 21 days after treatment
Protocol: as §1

[4] = system: Glycine max (GLXMA)
Protocol: as §1

[5] = system: Ipomoea hederacea (IPOHE); settings: second assessment 21 days after treatment
Protocol: as §1

[6] = system: Matricaria inodora (MATIN); settings: second assessment 21 days after treatment
Protocol: as §1

[7] = system: Setaria viridis (SETVI); settings: second assessment 21 days after treatment
Protocol: as §1

[8] = system: Triticum aestivum (TRZAW)
Protocol: as §1

[9] = system: Zea mays (ZEAMX)
Protocol: as §1

[10] = 0.0125 kg/ha, first assessment 10 days after treatment
[11] = 0.0125 kg/ha, second assessment 21 days after treatment
[12] = 0.025 kg/ha, first assessment 10 days after treatment
[13] = 0.025 kg/ha, second assessment 21 days after treatment
[14] = 0.100 kg/ha, first assessment 10 days after treatment
[15] = 0.100 kg/ha, second assessment 21 days after treatment
[16] = 0.400 kg/ha, first assessment 10 days after treatment
[17] = 0.400 kg/ha, second assessment 21 days after treatment

For `Cc1c(F)c(Oc2cccc(C(F)(F)F)c2)nc(-c2ccc(C(F)(F)F)cc2)c1F` [Example 2], the ABUTH rating ([1]; 0.0125 kg/ha) was 0 (0 - No effect), the ABUTH rating ([1]; 0.025 kg/ha) was 1 (1 - Trace effect) and the ABUTH rating ([1]; 0.100 kg/ha) was 3 (3 - Moderate effect). The ABUTH rating ([1]; 0.400 kg/ha) was 8 (8 - Approaching complete kill), the ALOMY rating ([2]; 0.0125 kg/ha) was 2 (2 - Slight effect) and the ALOMY rating ([2]; 0.025 kg/ha) was 3 (3 - Moderate effect). The ALOMY rating ([2]; 0.400 kg/ha) was 9 (9 - Complete kill), the AMBEL rating ([3]; 0.0125 kg/ha) was 4 (4 - Injury) and the AMBEL rating ([3]; 0.025 kg/ha) was 5 (5 - Definite injury). For the same compound, the AMBEL rating ([3]; 0.100 kg/ha) was 5 (5 - Definite injury), the AMBEL rating ([3]; 0.400 kg/ha) was 9 (9 - Complete kill) and the GLXMA rating [4, 10] was 0 (0 - No effect). For the same compound, the GLXMA rating [4, 11] was 2 (2 - Slight effect), the GLXMA rating [4, 12] was 1 (1 - Trace effect) and the GLXMA rating [4, 13] was 2 (2 - Slight effect). For the same compound, the GLXMA rating [4, 14] was 3 (3 - Moderate effect), the GLXMA rating [4, 15] was 4 (4 - Injury) and the GLXMA rating [4, 16] was 6 (6 - Herbicidal effect). The GLXMA rating [4, 17] was 7 (7 - Good herbicidal effect), the IPOHE rating ([5]; 0.0125 kg/ha) was 1 (1 - Trace effect) and the IPOHE rating ([5]; 0.025 kg/ha) was 2 (2 - Slight effect). For the same compound, the IPOHE rating ([5]; 0.100 kg/ha) was 3 (3 - Moderate effect), the IPOHE rating ([5]; 0.400 kg/ha) was 7 (7 - Good herbicidal effect) and the MATIN rating ([6]; 0.0125 kg/ha) was 7 (7 - Good herbicidal effect). For the same compound, the MATIN rating ([6]; 0.025 kg/ha) was 8 (8 - Approaching complete kill), the MATIN rating ([6]; 0.100 kg/ha) was 8 (8 - Approaching complete kill) and the MATIN rating ([6]; 0.400 kg/ha) was 9 (9 - Complete kill). The SETVI rating ([7]; 0.0125 kg/ha) was 5 (5 - Definite injury), the SETVI rating ([7]; 0.025 kg/ha) was 8 (8 - Approaching complete kill) and the SETVI rating ([7]; 0.100 kg/ha) was 9 (9 - Complete kill). The SETVI rating ([7]; 0.400 kg/ha) was 9 (9 - Complete kill), the TRZAW rating [8, 10] was 1 (1 - Trace effect) and the TRZAW rating [8, 11] was 0 (0 - No effect). For the same compound, the TRZAW rating [8, 12] was 1 (1 - Trace effect), the TRZAW rating [8, 13] was 0 (0 - No effect) and the TRZAW rating [8, 14] was 1 (1 - Trace effect). For the same compound, the TRZAW rating [8, 15] was 1 (1 - Trace effect), the TRZAW rating [8, 16] was 4 (4 - Injury) and the TRZAW rating [8, 17] was 5 (5 - Definite injury). For the same compound, the ZEAMX rating [9, 10] was 0 (0 - No effect), the ZEAMX rating [9, 11] was 0 (0 - No effect) and the ZEAMX rating [9, 12] was 1 (1 - Trace effect). The ZEAMX rating [9, 13] was 1 (1 - Trace effect), the ZEAMX rating [9, 14] was 2 (2 - Slight effect) and the ZEAMX rating [9, 15] was 2 (2 - Slight effect). For the same compound, the ZEAMX rating [9, 16] was 3 (3 - Moderate effect) and the ZEAMX rating [9, 17] was 3 (3 - Moderate effect).
